This passage reports IC50 results from patent US8476298B2 (Exelixis, Inc., priority 2003, dated 2013).

Assay [1] has as its target T1, c-Met (baculovirus expressed human c-Met kinase domain P948-S1343) (Homo sapiens, UniProt P08581).
T1 construct: human c-Met kinase domain P948-S1343; host or cells: baculovirus expression
Put plainly: c-Met Luciferase-Coupled Chemiluminescent Kinase assay (LCCA).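 Further: kinase activity read as percent ATP left after reaction, by luciferase-luciferin chemiluminescence, with 1 µM ATP and 1 µM poly-EY substrate, 2 h at ambient temperature, 10-point dose-response.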 Type of assay: biochemical.

In assay [2] the target is T2, KDR (baculovirus expressed human KDR kinase domain D807-V1356) (Homo sapiens, UniProt P35968).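 Further: Luciferase-coupled chemiluminescent kinase assay, activity read as percent ATP left after 4 h reaction at ambient temperature, ATP near KM, 10-point dose-response in 384-well plates.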
T2 construct: human KDR kinase domain D807-V1356; host or cells: baculovirus expression
T2 sequence (P35968 807-1356): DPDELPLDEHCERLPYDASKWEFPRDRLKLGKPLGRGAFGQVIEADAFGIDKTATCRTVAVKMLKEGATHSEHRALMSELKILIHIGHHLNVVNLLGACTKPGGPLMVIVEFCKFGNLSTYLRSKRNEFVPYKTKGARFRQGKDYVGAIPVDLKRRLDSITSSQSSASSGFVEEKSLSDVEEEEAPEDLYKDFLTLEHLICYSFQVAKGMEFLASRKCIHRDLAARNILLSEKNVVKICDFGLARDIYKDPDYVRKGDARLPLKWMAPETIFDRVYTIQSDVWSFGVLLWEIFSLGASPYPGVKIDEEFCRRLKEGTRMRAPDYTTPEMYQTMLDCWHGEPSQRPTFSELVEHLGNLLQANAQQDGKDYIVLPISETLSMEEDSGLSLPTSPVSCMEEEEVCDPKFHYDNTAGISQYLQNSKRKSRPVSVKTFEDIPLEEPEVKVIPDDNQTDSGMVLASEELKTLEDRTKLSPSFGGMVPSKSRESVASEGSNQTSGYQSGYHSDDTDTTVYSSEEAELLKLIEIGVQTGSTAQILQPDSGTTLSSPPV
Put plainly: biochemical.

Assay [3] deals with T3, Flt-3 (baculovirus expressed human Flt-3 kinase domain R571-S993) (Homo sapiens, UniProt P36888).
T3 construct: human Flt-3 kinase domain R571-S993; host or cells: baculovirus expression
T3 sequence (P36888 571-993): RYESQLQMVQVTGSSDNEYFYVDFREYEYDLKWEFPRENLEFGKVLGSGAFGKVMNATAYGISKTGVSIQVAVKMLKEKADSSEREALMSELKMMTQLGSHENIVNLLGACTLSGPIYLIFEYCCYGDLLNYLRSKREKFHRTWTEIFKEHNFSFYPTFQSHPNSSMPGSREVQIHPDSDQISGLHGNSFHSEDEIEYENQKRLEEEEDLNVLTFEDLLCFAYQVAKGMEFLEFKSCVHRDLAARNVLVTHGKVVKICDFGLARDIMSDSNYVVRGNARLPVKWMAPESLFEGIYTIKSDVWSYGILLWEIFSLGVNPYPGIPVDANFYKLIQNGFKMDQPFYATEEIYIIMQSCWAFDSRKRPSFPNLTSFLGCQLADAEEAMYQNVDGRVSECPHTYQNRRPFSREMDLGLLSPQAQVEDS
The experiment in a line: biochemical. The note with it: read-out: flt3 IC50.

Where [4] appears, read: Table 4, inhibition as IC50 class.

Like-named read-outs stand apart in the source and are kept apart here.
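Wherever flt3 IC50 is given: Luciferase-coupled chemiluminescent kinase assay, activity read as percent ATP left after a 3 h reaction at room temperature, ATP near KM, 10-point dose-response.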

T1 sequence (P08581 1011-1343 limits assumed): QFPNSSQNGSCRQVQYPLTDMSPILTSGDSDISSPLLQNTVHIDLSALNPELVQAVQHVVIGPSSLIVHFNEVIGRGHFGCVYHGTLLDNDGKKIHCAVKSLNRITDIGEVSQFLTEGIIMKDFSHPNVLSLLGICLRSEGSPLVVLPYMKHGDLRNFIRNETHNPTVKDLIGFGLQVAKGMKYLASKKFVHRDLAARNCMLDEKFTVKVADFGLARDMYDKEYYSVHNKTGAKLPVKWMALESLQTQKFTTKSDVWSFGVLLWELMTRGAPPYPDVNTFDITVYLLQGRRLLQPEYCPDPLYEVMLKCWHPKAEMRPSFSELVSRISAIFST

As for `COc1cc2c(Oc3ccc(NC(=O)[C@]4(C(=O)Nc5ccc(F)cc5)C[C@@H]4C)cc3F)ccnc2cc1OCCCN1CCN(C)CC1` [Example 354, (1R,2S)-N-{3-fluoro-4-[(6-(methyloxy)-7-{[3-(4-methylpiperazin-1-yl)propyl]oxy}quinolin-4-yl)oxy]phenyl}-N′-(4-fluorophenyl)-2-methylcyclopropane-1,1-dicarboxamide], the IC50 in assay [1], in assay [2] and in assay [3] was < 0.05 µM throughout.
As to `COc1cc2nccc(Oc3ccc(NC(=O)C4(C(=O)Nc5cccc(CN)c5)CC4)cc3)c2cc1OC` [Example 399, N-[3-(aminomethyl)phenyl]-N′-(4-{[6,7-bis(methyloxy)quinolin-4-yl]oxy}phenyl)cyclopropane-1,1-dicarboxamide], the IC50 (usually the concentration needed to halve the response being measured) in assay [1] was 0.05 to 0.5 µM; in assay [2], < 0.05 µM; in assay [3], 0.05 to 0.5 µM.
`CCN(CC)CCCOc1cc2nccc(Oc3ccc(NC(=O)C4(C(=O)Nc5ccc(F)cc5)[C@H](C)[C@H]4C)cc3F)c2cc1OC` (stereo partly drawn) [Example 371, (2R,3R)-N-(4-{[7-{[3-(diethylamino)propyl]oxy}-6-(methyloxy)quinolin-4-yl]oxy}-3-fluorophenyl)-N′-(4-fluorophenyl)-2,3-dimethylcyclopropane-1,1-dicarboxamide]: the IC50 in assay [1] was < 0.05 µM; in assay [2] it was < 0.05 µM; in assay [3] it was 0.05 to 0.5 µM.
`COc1cc2c(Oc3ccc(NC(=O)[C@]4(C(=O)Nc5ccc(F)cc5)C[C@H]4C)cc3F)ncnc2cc1OCCCN1CCN(C)CC1` [Example 387, (1R,2R)-N-{3-fluoro-4-[(6-(methyloxy)-7-{[3-(4-methylpiperazin-1-yl)propyl]oxy}quinazolin-4-yl)oxy]phenyl}-N′-(4-fluorophenyl)-2-methylcyclopropane-1,1-dicarboxamide]: the 50% inhibitory concentration (IC50) in assay [1], in assay [2] and in assay [3] was < 0.05 µM throughout.
Take `COc1cc2c(Oc3ccc(NC(=O)[C@@]4(C(=O)Nc5ccc(F)cc5)[C@H](C)[C@@H]4C)cc3F)ccnc2cc1OCCCN1CCN(C)CC1` [Example 366, (1r,2R,3S)-N-{3-fluoro-4-[(6-(methyloxy)-7-{[3-(4-methylpiperazin-1-yl)propyl]oxy}quinolin-4-yl)oxy]phenyl}-N′-(4-fluorophenyl)-2,3-dimethylcyclopropane-1,1-dicarboxamide]: the IC50 in assay [1] was < 0.05 µM; in assay [2] it was 0.05 to 0.5 µM; in assay [3], 0.05 to 0.5 µM.
In the case of `COc1cc2c(Oc3ccc(NC(=O)C4(C(=O)Nc5ccc(F)cc5)CC4(C)C)cc3F)ncnc2cc1OCCCN1CCOCC1` (stereo not drawn) [Example 373, N-[3-fluoro-4-({6-(methyloxy)-7-[(3-morpholin-4-ylpropyl)oxy]quinazolin-4-yl}oxy)phenyl]-N′-(4-fluorophenyl)-2,2-dimethylcyclopropane-1,1-dicarboxamide], the IC50 in assay [1] was < 0.05 µM; in assay [2] it was < 0.05 µM; in assay [3] it was 0.5 to 5 µM.
As for `COc1cc2nccc(Oc3ccc(NC(=O)C4(C(=O)Nc5ccc(F)cc5)CNC4)cc3)c2cc1OC` [Example 353, N-(4-{[6,7-bis(methyloxy)quinolin-4-yl]oxy}phenyl)-N′-(4-fluorophenyl)azetidine-3,3-dicarboxamide], the 50% inhibitory concentration (IC50) in assay [1] is 0.05 to 0.5 µM; in assay [2] it was 0.5 to 5 µM; in assay [3], 0.5 to 5 µM.
On to `CCN(CC)CCCOc1cc2nccc(Oc3ccc(NC(=O)[C@@]4(C(=O)Nc5ccc(F)cc5)[C@H](C)[C@@H]4C)cc3F)c2cc1OC` [Example 374, (1r,2R,3S)-N-(4-{[7-{[3-(diethylamino)propyl]oxy}-6-(methyloxy)quinolin-4-yl]oxy}-3-fluorophenyl)-N′-(4-fluorophenyl)-2,3-dimethylcyclopropane-1,1-dicarboxamide], for which the half-maximal inhibitory concentration (IC50) is < 0.05 µM in assay [1], 0.05 to 0.5 µM in assay [2] and 0.05 to 0.5 µM in assay [3].
On to `CCN(CC)CCOc1cc2c(Oc3ccc(NC(=O)C4(C(=O)Nc5ccc(F)cc5)CC4)cc3F)ccnc2cc1OC` [Example 345, N-(4-{[6-{[2-(diethylamino)ethyl]oxy}-7-(methyloxy)quinolin-4-yl]oxy}-3-fluorophenyl)-N′-(4-fluorophenyl)cyclopropane-1,1-dicarboxamide], for which the half-inhibitory concentration (IC50) in assay [1], in assay [2] and in assay [3] was < 0.05 µM each time.
In the case of `CCN(CC)CCOc1cc2ncnc(Oc3ccc(NC(=O)C4(C(=O)Nc5ccc(F)cc5)CC4(C)C)cc3F)c2cc1OC` (stereo not drawn) [Example 378, N-(4-{[7-{[2-(diethylamino)ethyl]oxy}-6-(methyloxy)quinazolin-4-yl]oxy}-3-fluorophenyl)-N′-(4-fluorophenyl)-2,2-dimethylcyclopropane-1,1-dicarboxamide], the concentration for half-maximal inhibition (IC50) in assay [1] was < 0.05 µM; in assay [2], 0.05 to 0.5 µM; in assay [3] it was 0.5 to 5 µM.
For `CCN(CC)CCCOc1cc2nccc(Oc3ccc(NC(=O)C4(C(=O)Nc5ccc(F)cc5)CC4(C)C)cc3F)c2cc1OC` (stereo not drawn) [Example 372, N-(4-{[7-{[3-(diethylamino)propyl]oxy}-6-(methyloxy)quinolin-4-yl]oxy}-3-fluorophenyl)-N′-(4-fluorophenyl)-2,2-dimethylcyclopropane-1,1-dicarboxamide] the same measures were < 0.05 µM, < 0.05 µM and 0.05 to 0.5 µM.
Regarding `COc1cc2nccc(Oc3ccc(N4CCN(Cc5ccccc5)CC4)cc3)c2cc1OC` [Example 115, 6,7-bis(methyloxy)-4-({4-[4-(phenylmethyl)piperazin-1-yl]phenyl}oxy)quinoline], the IC50 in assay [1] and in assay [2] was 0.5 to 5 µM throughout.
For the compound `COc1cc2nc(N)cc(Oc3ccc(NC(=O)C4(C(=O)Nc5ccc(F)cc5)CC4)cc3F)c2cc1OC` [Example 340, N-(4-{[2-amino-6,7-bis(methyloxy)quinolin-4-yl]oxy}-3-fluorophenyl)-N′-(4-fluorophenyl)cyclopropane-1,1-dicarboxamide], the IC50 in assay [1] and in assay [2] was 0.5 to 5 µM each time.
With `COc1cc2c(Oc3ccc(NC(=O)C(=O)NCCc4ccccc4)cc3F)ccnc2cc1OCC1CNC1` [Example 249, N-(4-{[7-[(azetidin-3-ylmethyl)oxy]-6-(methyloxy)quinolin-4-yl]oxy}-3-fluorophenyl)-N′-(2-phenylethyl)ethanediamide], the IC50 in assay [1] (setting [4]) and in assay [2] (setting [4]) was < 0.05 µM each time.
For `COc1cc2nccc(Oc3ccc(NC(=O)/C(C)=N/OCc4ccccc4)cc3)c2cc1OC` [Example 110, (2E)-N-(4-{[6,7-bis(methyloxy)quinolin-4-yl]oxy}phenyl)-2-{[(phenylmethyl)oxy]imino} propanamide], the IC50 in assay [1] and in assay [2] was 0.05 to 0.5 µM in each case.
On to `COc1cc2nccc(Oc3ccc(N4CC(Cc5ccccc5)NC4=O)cc3)c2cc1OC` (stereo not drawn) [Example 113, 1-(4-{[6,7-bis(methyloxy)quinolin-4-yl]oxy}phenyl)-4-(phenylmethyl)imidazolidin-2-one], for which the IC50 in assay [1] and in assay [2] was 0.5 to 5 µM in each case.
Consider `COc1cc2nccc(Oc3ncc(NC(=O)CC(=O)Nc4cccc(F)c4)cc3Cl)c2cc1OC` [Example 290, N-(6-{[6,7-bis(methyloxy)quinolin-4-yl]oxy}-5-chloropyridin-3-yl)-N′-(3-fluorophenyl)propanediamide], for which the values for the IC50 in assay [1] and in assay [2] were 0.05 to 0.5 µM and 0.5 to 5 µM, respectively.
